According to patent US9708314B2, “Heterocyclic amide compound” (NISSAN CHEMICAL INDUSTRIES, LTD., priority 2013, dated 2017):

Assays:
Format in all cases: in vivo
[1] = system: directly sowed Oryza sativa; assay: Test Example 3: effect on crop by application to foliage (Wagner pot, water depth 0.1-0.5 cm); settings: Nineteenth Table; application to foliage; application herbicide amount 320 g/ha
Outline: (§1)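 Scores (0–5) reflect herbicidal ratio three weeks after a foliar spray: 0 is 5% or less, 5 is 90% or more. Plants had grown 14 days in alluvial soil pots in a 25–30 °C greenhouse before treatment with water-diluted emulsion at a set g/ha.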

Apera spica-venti. = assay: Test Example 4: herbicidal effect by application to foliage (diluvial soil, plastic box); settings: 320 g/ha; for L (Apera spica-venti.) herbicidal effect grade: foliage application
Outline: (§2)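 Scores run from 0 (herbicidal ratio ≤5%) to 5 (≥90%, almost fully withered) and were assessed three weeks after foliar spraying. Seedlings had been raised for 14 days at 25-30° C in sterilized diluvial soil before treatment, with the emulsion diluted in water to the stated g/ha dose.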

Setaria viridis = assay: as above; settings: 320 g/ha; for G (Setaria viridis) herbicidal effect grade: foliage application
Outline: as §2

Veronica persica = assay: as above; settings: foliage application, 320 g/ha
Outline: as §2

Chenopodium album = assay: as above; settings: 320 g/ha; for O (Chenopodium album) herbicidal effect grade: foliage application
Outline: as §2

Avena fatua = assay: as above; settings: 320 g/ha; for I (Avena fatua) herbicidal effect grade: foliage application
Outline: as §2

[2] = system: Echinochloa crus-galli var. crus-galli; assay: as above; settings: 320 g/ha; for H (Echinochloa crus-galli var. crus-galli) herbicidal effect grade: foliage application
Outline: as §2

Alopecurus myosuroides = assay: as above; settings: 320 g/ha; for J (Alopecurus myosuroides) herbicidal effect grade: foliage application
Outline: as §2

Stellaria media = assay: as above; settings: 320 g/ha; for P (Stellaria media) herbicidal effect grade: foliage application
Outline: as §2

Lolium multiflorum Lam. = assay: as above; settings: 320 g/ha; for K (Lolium multiflorum Lam.) herbicidal effect grade: foliage application
Outline: as §2

Abutilon theophrasti = assay: as above; settings: 320 g/ha; for M (Abutilon theophrasti) herbicidal effect grade: foliage application
Outline: as §2

Digitaria ciliaris = assay: as above; settings: 320 g/ha; for F (Digitaria ciliaris) herbicidal effect grade: foliage application
Outline: as §2

Galium spurium = assay: as above; settings: 320 g/ha; for Q (Galium spurium) herbicidal effect grade: foliage application
Outline: as §2

Amaranthus retroflexus = assay: as above; settings: 320 g/ha; for N (Amaranthus retroflexus) herbicidal effect grade: foliage application
Outline: as §2

Cyperus difformis = assay: Test Example 3: herbicidal effect by application to foliage (Wagner pot, water depth 0.1-0.5 cm); settings: Nineteenth Table; application to foliage; application herbicide amount 320 g/ha
Outline: as §1

[3] = system: Echinochloa crus-galli var. crus-galli; assay: as above; settings: Nineteenth Table; application to foliage; application herbicide amount 320 g/ha
Outline: as §1

Leptochloa chinensis = assay: as above; settings: Nineteenth Table; application to foliage; application herbicide amount 320 g/ha
Outline: as §1

Row | Compound | b (effect on crop grade) [1] | L (Apera spica-venti.) herbicidal effect grade (Apera spica-venti.) | G (Setaria viridis) herbicidal effect grade (Setaria viridis) | R (Veronica persica) herbicidal effect grade (Veronica persica) | O (Chenopodium album) herbicidal effect grade (Chenopodium album) | I (Avena fatua) herbicidal effect grade (Avena fatua) | H (Echinochloa crus-galli var. crus-galli) herbicidal effect grade [2] | J (Alopecurus myosuroides) herbicidal effect grade (Alopecurus myosuroides) | P (Stellaria media) herbicidal effect grade (Stellaria media) | K (Lolium multiflorum Lam.) herbicidal effect grade (Lolium multiflorum Lam.) | M (Abutilon theophrasti) herbicidal effect grade (Abutilon theophrasti) | F (Digitaria ciliaris) herbicidal effect grade (Digitaria ciliaris) | Q (Galium spurium) herbicidal effect grade (Galium spurium) | N (Amaranthus retroflexus) herbicidal effect grade (Amaranthus retroflexus) | E (herbicidal effect grade) (Cyperus difformis) | H (herbicidal effect grade) [3] | D (herbicidal effect grade) (Leptochloa chinensis) | further results
1 | CC(C)c1nnc2c(C(=S)Nc3nnnn3C)ccc(C(F)(F)F)n12 [2-039, 3-Isopropyl-N-(1-methyl-1H-tetrazol-5-yl)-5-(trifluoromethyl)-[1,2,4]triazolo[4,3-a]pyridine-8-carbothioamide] | 4 (Herbicidal ratio of 70% or more and less than 90%) | 4 (Herbicidal ratio of 70% or more and less than 90%) | 5 (Herbicidal ratio of 90% or more (almost completely withered)) | 5 (Herbicidal ratio of 90% or more (almost completely withered)) | 5 (Herbicidal ratio of 90% or more (almost completely withered)) | 4 (Herbicidal ratio of 70% or more and less than 90%) | 5 (Herbicidal ratio of 90% or more (almost completely withered)) | 3 (Herbicidal ratio of 40% or more and less than 70%) | 5 (Herbicidal ratio of 90% or more (almost completely withered)) | 3 (Herbicidal ratio of 40% or more and less than 70%) | 5 (Herbicidal ratio of 90% or more (almost completely withered)) | 5 (Herbicidal ratio of 90% or more (almost completely withered)) | 4 (Herbicidal ratio of 70% or more and less than 90%) | 5 (Herbicidal ratio of 90% or more (almost completely withered)) | 5 (Herbicidal ratio of 90% or more (almost completely withered)) | 5 (Herbicidal ratio of 90% or more (almost completely withered)) |  | 
2 | CCOC(=O)Cc1nnc2c(C(=O)Nc3nnnn3C)ccc(C(F)(F)F)n12 [2-040] | 4 (Herbicidal ratio of 70% or more and less than 90%) | 3 (Herbicidal ratio of 40% or more and less than 70%) | 3 (Herbicidal ratio of 40% or more and less than 70%) | 5 (Herbicidal ratio of 90% or more (almost completely withered)) | 5 (Herbicidal ratio of 90% or more (almost completely withered)) | 3 (Herbicidal ratio of 40% or more and less than 70%) | 5 (Herbicidal ratio of 90% or more (almost completely withered)) | 1 (Herbicidal ratio of 5% or more and less than 20%) | 5 (Herbicidal ratio of 90% or more (almost completely withered)) | 1 (Herbicidal ratio of 5% or more and less than 20%) | 5 (Herbicidal ratio of 90% or more (almost completely withered)) | 5 (Herbicidal ratio of 90% or more (almost completely withered)) | 4 (Herbicidal ratio of 70% or more and less than 90%) | 5 (Herbicidal ratio of 90% or more (almost completely withered)) | 5 (Herbicidal ratio of 90% or more (almost completely withered)) | 4 (Herbicidal ratio of 70% or more and less than 90%) |  | 
3 | Cn1nnnc1NC(=O)c1ccc(C(F)(F)F)n2c(Nc3ccccc3)nnc12 [2-056] | 4 (Herbicidal ratio of 70% or more and less than 90%) | 1 (Herbicidal ratio of 5% or more and less than 20%) | 3 (Herbicidal ratio of 40% or more and less than 70%) |  | 5 (Herbicidal ratio of 90% or more (almost completely withered)) | 1 (Herbicidal ratio of 5% or more and less than 20%) | 4 (Herbicidal ratio of 70% or more and less than 90%) | 1 (Herbicidal ratio of 5% or more and less than 20%) | 5 (Herbicidal ratio of 90% or more (almost completely withered)) | 1 (Herbicidal ratio of 5% or more and less than 20%) | 4 (Herbicidal ratio of 70% or more and less than 90%) | 5 (Herbicidal ratio of 90% or more (almost completely withered)) | 4 (Herbicidal ratio of 70% or more and less than 90%) | 4 (Herbicidal ratio of 70% or more and less than 90%) | 4 (Herbicidal ratio of 70% or more and less than 90%) | 4 (Herbicidal ratio of 70% or more and less than 90%) | 5 (Herbicidal ratio of 90% or more (almost completely withered)) | 
4 | Cn1nnnc1NC(=O)c1ccc(C(F)(F)F)n2c(SCC(F)(F)F)nnc12 [2-087] | 3 (Herbicidal ratio of 40% or more and less than 70%) |  |  |  |  |  |  |  |  |  |  |  |  |  | 5 (Herbicidal ratio of 90% or more (almost completely withered)) | 5 (Herbicidal ratio of 90% or more (almost completely withered)) | 5 (Herbicidal ratio of 90% or more (almost completely withered)) | herbicidal effect, L (Apera spica-venti.) (Apera spica-venti.; application to foliage): 4 (Herbicidal ratio of 70% or more and less than 90%); herbicidal effect, G (Setaria viridis) (Setaria viridis; application to foliage): 4 (Herbicidal ratio of 70% or more and less than 90%); herbicidal effect, O (Chenopodium album) (Chenopodium album; application to foliage): 5 (Herbicidal ratio of 90% or more (almost completely withered)); herbicidal effect, I (Avena fatua) (Avena fatua; application to foliage): 4 (Herbicidal ratio of 70% or more and less than 90%); herbicidal effect, H (Echinochloa crus-galli var. crus-galli) ([2]; application to foliage): 5 (Herbicidal ratio of 90% or more (almost completely withered)); herbicidal effect, J (Alopecurus myosuroides) (Alopecurus myosuroides; application to foliage): 3 (Herbicidal ratio of 40% or more and less than 70%); herbicidal effect, P (Stellaria media) (Stellaria media; application to foliage): 5 (Herbicidal ratio of 90% or more (almost completely withered)); herbicidal effect, K (Lolium multiflorum Lam.) (Lolium multiflorum Lam.; application to foliage): 3 (Herbicidal ratio of 40% or more and less than 70%); herbicidal effect, M (Abutilon theophrasti) (Abutilon theophrasti; application to foliage): 5 (Herbicidal ratio of 90% or more (almost completely withered)); herbicidal effect, F (Digitaria ciliaris) (Digitaria ciliaris; application to foliage): 5 (Herbicidal ratio of 90% or more (almost completely withered)); herbicidal effect, Q (Galium spurium) (Galium spurium; application to foliage): 3 (Herbicidal ratio of 40% or more and less than 70%); herbicidal effect, N (Amaranthus retroflexus) (Amaranthus retroflexus; application to foliage): 4 (Herbicidal ratio of 70% or more and less than 90%)
